Source: patent US7919268B2, “Reducing sample turbidity in measurement of enzymatic activity in cell lysates” (Roche Diagnostics Operations, Inc., priority 2005, dated 2011)
Where a name gives a salt, the structure may show the parent alone.

Tested on: LDH
Experiment: not given
Format: biochemical, human
Conditions: 492 nm; lysate of 5000 cells; reaction time 5 min; SDS 3% (v/v), sodium oxamate 15 mM, Triton X100 1% (v/v)

Molecule	Absorption 0 min after adding stop reagent	Absorption 30 min after adding stop reagent	Absorption 120 min after adding stop reagent
CCCCCCCCCCCCOS(=O)(=O)[O-].[Na+] [SDS, sodium dodecyl sulphate]	0.113	0.113	0.105
NC(=O)C(=O)[O-].[Na+] [sodium oxamate]	0.113	0.127	0.179

Same assay, conditions: SDS 3% (v/v), sodium oxamate 15 mM, Triton X100 1% (v/v)

Molecule	Termination of the LDH reaction (in words)
CCCCCCCCCCCCOS(=O)(=O)[O-].[Na+] [SDS, sodium dodecyl sulphate]	stop the LDH reaction
NC(=O)C(=O)[O-].[Na+] [sodium oxamate]	stop the LDH reaction

Tested on: human suspension cell line U 937
Experiment: Absorption of cells at 690 nm after treatment with different reagents
Format: cell-based
Conditions: 25 000 U 937 cells, reagent final concentration 1% (v/v)
Method: The human suspension cell line U 937 was cultured in RPMI 1640 medium (Sigma Company) containing 10% foetal calf serum and 2 mM glutamine. The cells were then washed in fresh RPMI medium and adjusted to 25,000, 50,000 and 100,000 cells/100 μl. 100 μl thereof was in each case transferred to a 96-well standard microtitre plate. 50 μl RPMI medium containing the appropriate reagents was added by pipette to each of the cell solutions.
The absorption of each well was measured at a wavelength of 690 nm after 5 min and 75 min incubation.

Molecule	Absorption after 5 min	Absorption after 75 min
CCCCCCCCCCCCOS(=O)(=O)[O-].[Na+] [SDS, sodium dodecyl sulphate]	0.002	0.003
CCCCCCCCCCCCCCCC[N+](C)(C)C.[Br-] [CTAB, cetyltrimethylammonium bromide]	0.006	0.003
CCCCCCCCCCCCN(C)CC(=O)O [N-laurylsarcosine]	0.001	0.002
CCCCCCCCCCCC[N+](C)(C)C.[Br-] [DTAB, dodecyltrimethylammonium bromide]	0.005	0.006
octylphenoxypolyethoxyethanol [Triton X100]	0.001	0.001

Same assay, conditions: 50 000 U 937 cells, reagent final concentration 1% (v/v)

Molecule	Absorption after 5 min	Absorption after 75 min
CCCCCCCCCCCCOS(=O)(=O)[O-].[Na+] [SDS, sodium dodecyl sulphate]	0.006	0.006
CCCCCCCCCCCCCCCC[N+](C)(C)C.[Br-] [CTAB, cetyltrimethylammonium bromide]	0.031	0.014
CCCCCCCCCCCCN(C)CC(=O)O [N-laurylsarcosine]	0.003	0.004
CCCCCCCCCCCC[N+](C)(C)C.[Br-] [DTAB, dodecyltrimethylammonium bromide]	0.012	0.011
octylphenoxypolyethoxyethanol [Triton X100]	0.004	0.004

Same assay, conditions: 100 000 U 937 cells, reagent final concentration 1% (v/v)

Molecule	Absorption after 5 min	Absorption after 75 min
CCCCCCCCCCCCOS(=O)(=O)[O-].[Na+] [SDS, sodium dodecyl sulphate]	0.010	0.010
CCCCCCCCCCCCCCCC[N+](C)(C)C.[Br-] [CTAB, cetyltrimethylammonium bromide]	0.025	0.018
CCCCCCCCCCCCN(C)CC(=O)O [N-laurylsarcosine]	0.012	0.013
CCCCCCCCCCCC[N+](C)(C)C.[Br-] [DTAB, dodecyltrimethylammonium bromide]	0.024	0.021
octylphenoxypolyethoxyethanol [Triton X100]	0.008	0.008

Tested on: LDH
Experiment: not given
Conditions: 0.2 M HCl, Triton X100 1% (v/v)
Method: In another experiment HCl and NaOH were used as a stop reagent.
For this purpose cell-free lysates each of 1000 cells were used in an LDH test with the components from the Cytotoxicity Detection Kit (LDH) containing the modified dye solution. After a reaction time of 30 min different stop reagents were added to these mixtures and the absorption was monitored at 492 nm (the absorption maximum of reduced INT).

Molecule	Termination of the LDH reaction (in words)
Cl [HCl]	suitable stop reagent

Same assay, conditions: 492 nm; lysate of 1000 cells; reaction time 30 min; 0.2 M HCl, Triton X100 1% (v/v)

Molecule	Absorption 0 min after adding stop reagent	Absorption 30 min after adding stop reagent	Absorption 120 min after adding stop reagent
Cl [HCl]	0.275	0.271	0.261
